Measurements: US8093301B2, “Anti-allergic agent” (Meiji Co., Ltd., priority 2005, dated 2012)
In brackets after ≈: the same amount, converted by molar mass. Several values for one entry are separate records, joined by “and”; a condition that tells them apart may be missing. Equal entries are not always repeated. Structures can show the parent of a compound that is named as a salt. Where two headings read alike, the source gives them in different places.

How the values were obtained:
[1] = tested on: basophil-like cells (RBL-2H3); test: β-hexosaminidase release inhibition test (degranulation of IgE-sensitised, DNP-BSA-stimulated cells); assay type: cell-based; details: for IC50: read-out: 50% β-hexosaminidase release inhibitory concentration (IC50)
Procedure: In the Examples, the degree of cell degranulation was assessed through determination of β-hexosaminidase activity. In a specific procedure, basophil-like cells (RBL-2H3, Human Science Laboratory Resource Bank) were suspended in a Dulbecco's modified Eagle's medium (DMEM, product of Gibco) containing a 10% fetal calf serum, and the suspension was incubated overnight at 37° C. in a 96-well plate (2.5×10^5 cells/mL) in the presence of 0.1 μg/mL anti-dinitrophenyl (DNP)-IgE antibody (product of SIGMA).
The thus-treated basophil-like cells (RBL-2H3) were washed with phosphate buffer (PBS) and further incubated at 37° C. for 30 minutes in the presence of each test substance (Examples 1 to 6 and Comparative Examples 1 to 3) at a predetermined concentration. The concentrations at which incubation was performed were 0.1, 0.2, 0.3, 0.4, and 0.5 μM (ACNQ); 20, 30, 40, 60, and 80 μM (DHNA); 60, 70, 80, 90, and 100 μM (2-methyl-1,4-naphthoquinone (vitamin K3)); 10, 20, 30, 40, and 50 μM (4-amino-2-methyl-1-naphthol (vitamin K5)); 10, 20, 30, 40, and 50 μM (1,4-naphthoquinone); 3, 4, 5, 6, and 7 μM (2-amino-3-chloro-1,4-naphthoquinone); 50 and 100 μM (vitamin K1); 25, 50, and 100 μM (vitamin K2); and 50 and 100 μM (1,3-naphthalenediol).
The thus-incubated basophil-like cells (RBL-2H3) were washed with PBS, and further incubated at 37° C. for one hour in the presence of 1-μg/mL DNP-BSA (product of SSL). After completion of incubation, a supernatant was recovered from each well, and the activity of β-hexosaminidase contained in each supernatant was determined. The activity of β-hexosaminidase remaining in the cells was also determined through solubilizing the remaining cells with 0.1% polyoxyethylene(10)octylphenyl ether/DMEM.
Each of the thus-obtained supernatants and cell solubilized liquids was added to a 96-well plate (50 μL/well), and 2 mM p-nitrophenyl N-acetyl-β-D-glucosaminide (product of SIGMA) serving as a substrate was added thereto (50 μL/well). After incubation at 37° C. for two hours, a suppressor (1M Tris, pH: 9.0) was added thereto (150 μL/well), and the absorbance at 415 nm was measured by means of a plate reader. For assessing degranulation, percent β-hexosaminidase release (%) was calculated through the following formula: Percent β-hexosaminidase release (%)=100×(OD415 of supernatant)/(OD415 of supernatant+OD415 of solubilized cells).
The β-hexosaminidase activity of supernatant was determined as described above. The β-hexosaminidase activity of a supernatant of basophil-like cells (RBL-2H3) incubated in the presence of each of the test substances of Examples 1 to 6 and Comparative Examples 1 to 3) was measured, whereby 50% β-hexosaminidase release inhibitory concentration (IC50) was calculated.

PCA reaction = test: PCA reaction, Evans Blue leakage to ear auricles; assay type: in vivo; details: ICR mice, 100 μg/kg perorally one hour before PCA induction, compared with CMC sodium-administered group, P<0.05 t-test (FIG. 3)
Procedure: ICR mice (female, 6-week old) were preliminarily bred and grouped into the following three groups such that these groups had the same average body weight: Group 1, 0.5% carboxy-methyl-cellulose (CMC) sodium-administered group (Comparative Example 4); Group 2, ACNQ (100 μg/kg)-administered group (Example 7); and Group 3, PCA-non-induced group (Comparative Example 5). Groups 1 and 2 each included 8 mice, and Group 3 included 4 mice. Group 1 (CMC sodium-administered group) served as a control group with respect to Group 2 (ACNQ-administered group).
To each of the ICR mice of Groups 1 and 2, an anti-DNP-IgE antibody (100 ng/body) was intradermally administered through an ear auricle. Instead of the anti-DNP-IgE antibody, physiological saline was administered in a similar manner to each of the ICR mice of Group 3. […]
Subsequently, one hour after administration of each test substance, DNP-bound BSA (0.25 mg/body) serving as an antigen and Evans Blue were intravenously administered to each of the ICR mice of Groups 1 to 3, to thereby induce PCA. […] The absorbance of each extract at 620 nm was determined, to thereby calculate the Evans Blue level leaked to the ear auricle.

[2] = tested on: basophil-like cells (RBL-2H3); details: Non-Patent Document 2; cited from earlier work
[3] = Rattus norvegicus, RBL-2H3, 0.5 h, RBL-2H3, 30 minutes incubation with test substance, DNP-BSA stimulation
[4] = Rattus norvegicus, RBL-2H3, 0.5 h, RBL-2H3, same IC50 expressed in μg/mL
[5] = Rattus norvegicus, RBL-2H3, RBL-2H3, same IC50 expressed in μg/mL
[6] = RBL-2H3, 30 minutes incubation with test substance, DNP-BSA stimulation
[7] = RBL-2H3, same IC50 expressed in μg/mL

Compound	IC50 [1, 3]	IC50 [1, 4]	IC50 [1, 5]	further results
Oc1cc(O)c2ccccc2c1 [1,3-Naphthalenediol, 1,3-naphthalenediol, reference compound]	–	–	–	IC50 ([1]; Rattus norvegicus, RBL-2H3, 0.5 h): > 100 µM and > 16 µg/mL
O=C1C=CC(=O)c2ccccc21 [1,4-Naphthoquione, 1,4-naphthoquinone]	~30 µM	4.7 µg/mL	4.7 µg/mL	–
NC1=C(Cl)C(=O)c2ccccc2C1=O [2-Amino-3-chloro-1,4-naphthoquinone, 2-amino-3-chloro-1,4-naphthoquinone]	6.8 µM	1.4 µg/mL	1.4 µg/mL	–
NC1=C(C(=O)O)C(=O)c2ccccc2C1=O [ACNQ, 2-amino-3-carboxy-1,4-naphthoquinone]	0.25 µM	0.0545 µg/mL	0.0545 µg/mL	percent β-hexosaminidase release, relative to that of sample containing no test substance (0 μM) ([1]; ACNQ concentration ≧0.4 μM (FIG. 1)): about 20%; Evans Blue level leaked to the ear auricle (PCA reaction): significantly lowered
O=C(O)c1cc(O)c2ccccc2c1O [DHNA, 1,4-dihydroxy-2-naphthoic acid]	~50 µM	8.2 µg/mL	8.2 µg/mL	percent β-hexosaminidase release, relative to that of sample containing no test substance (0 μM) ([1]; DHNA concentration ≧60 μM (FIG. 2)): about 20%
CC1=C(C/C=C(\C)CCC[C@H](C)CCC[C@H](C)CCCC(C)C)C(=O)c2ccccc2C1=O [Vitamin K1, phylloquione, reference compound]	–	–	–	IC50 [1, 6]: > 100 µM; 50% β-hexosaminidase release inhibitory concentration (IC50) [1, 7]: (>45.1 μg/mL)
CC1=CC(=O)c2ccccc2C1=O [Vitamin K3, 2-methyl-1,4-naphthoquinone]	~50 µM	11.5 µg/mL	11.5 µg/mL	–
Cc1cc(N)c2ccccc2c1O [Vitamin K5, 4-amino-2-methyl-1-naphthol]	~30 µM	6.1 µg/mL	6.1 µg/mL	–
CN1CCC(=C2c3ccccc3CC(=O)c3sccc32)CC1 [ketotifen fumarate, 4-(1-methyl-4-piperidylidene-4H-benzo[4,5]-cyclohepta[1,2-b]-thiophen-10(9H)-one hydrogen fumarate]	–	–	–	IC50 [2]: 214 µM; IC50 to basophil-like cells (RBL-2H3) [2]: 91 µg/mL
COc1ccc(C=CC(=O)Nc2ccccc2C(=O)O)cc1OC [tranilast, N-(3,4-dimethoxycinnamoyl)anthranilic acid]	–	–	–	IC50 [2]: 492 µM; IC50 to basophil-like cells (RBL-2H3) [2]: 161 µg/mL (≈ 492 µM)
menaquinone [Vitamin K2, reference compound]	–	–	–	IC50 [1, 6]: > 100 µM; 50% β-hexosaminidase release inhibitory concentration (IC50) [1, 7]: (>44 μg/mL)
